Experimental data published in paper PMC6838142, “Nano-Antagonist Alleviates Inflammation and Allows for MRI of Atherosclerosis” (Nanotheranostics, 2019).

Columns and labels:
[1] = tested on: bone marrow derived monocytes, CCL2-induced migration; test: CCL2-induced chemotaxis assay; type: cell-based, mouse; set-up: cell velocity / distance traveled / chemotactic index: dose or concentration left out as unconfirmed
Experimental: Chemotaxis assays were performed using IBIDI µ-Slides as per the manufacturer's instructions and the recently published guide detailing the protocol. […] Cells were allowed to attach for 3 h at 37 °C, washed with 0.2 mL warm cell culture medium using a pipette tip inserted into µ-channel port, following which 100 nM recombinant mouse CCL2 protein was added as a chemoattractant (or omitted in control slides) to the one of side reservoirs. Cell movement was recorded for a duration of 12 h via phase video-microscopy in a stage-top humidified incubator at 37 °C and 5% CO2 atmosphere. Analysis was performed using the ImageJ IBIDI tracking tool, available free of charge at https://ibidi.com.

Question: Which cell velocity ([1]; CCL2-induced chemotaxis) does the source give for CCTV here?
Answer: Its cell velocity is “statistically significant inhibition”.

Question: What about the chemotactic index ([1]; CCL2-induced chemotaxis) of the same substance?
Answer: Its chemotactic index is “statistically significant inhibition”.

Question: And the distance traveled ([1]; CCL2-induced chemotaxis)?
Answer: The distance traveled was “statistically significant inhibition”.

Question: And the CCL2-induced monocyte migration ([1]; pre-treated BMDMs, 100 nM recombinant mouse CCL2, 12 h, nanoparticles)?
Answer: Its CCL2-induced monocyte migration is “potently inhibited CCL2-induced monocyte migration in an antagonistic manner”.

Question: And the “toxicity of SH-conjugated nanoparticles” value (RAW cells)?
Answer: The value was “very low toxicity”.
